Drawing on US5760036A, “Aminediol protease inhibitors” (E. R. Squibb & Sons, Inc., priority 1995, dated 1998), this text covers inhibition and IC50 for 19 compounds.

In one assay the target is T1, HIV protease (Human immunodeficiency virus type 1 group M subtype B, UniProt P04585).
T1 construct: and purified protease
Put plainly: HIV Protease Assay. Format: biochemical. The conditions noted are these: pH 5.5, 10 μM inhibitor, 4% DMSO, 450 μM substrate, pH 5.5, 30 minutes at 37° C., RP-HPLC; read-out: HIV Protease % Inhibition at 10 μM. In outline:
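Purified protease cleaved 450 μM octapeptide substrate in 50 mM sodium acetate pH 5.5 with 100 μg/ml BSA for 30 minutes at 37° C; product analyzed by reverse-phase HPLC at UV220 after H3PO4 quench. Inhibitors tested at final 10 μM with 4% DMSO.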

Assay [1] deals with RF strain of HIV (CEM-SS cells). Put plainly: Cell Culture Anti-HIV Activity (cell viability, formazan). It is filed as cell-based. The conditions noted are these: Human immunodeficiency virus 1, CEM-SS, 144 h, CEM-SS cells, RF strain of HIV, multiplicity of infection 0.04, 6 days at 37° C., 450 nm; read-out: HIV (CEM Cells) IC50. A digest of the protocol: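 CEM-SS cells (5000/well) infected with HIV RF at MOI 0.04, exposed to half-log serial compound dilutions, incubated 6 days at 37° C. Viability read by tetrazolium reduction to formazan, absorbance 450 nm. IC50 is the concentration raising formazan in infected cells to 50% of uninfected, drug-free cells.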

With `COCC(C)(C)OC(=O)N[C@@H](Cc1ccccc1)[C@H](O)CNC[C@@H](O)[C@H](Cc1ccccc1)NC(=O)OC(C)(C)C` [Compound 168, [R-(R*,S*)]-[Iminobis[2-hydroxy-1-(phenylmethyl)-3,1-propanediyl)biscarbamic acid, 1,1-dimethylethyl 2-methoxy-1,1-dimethylethyl ester], on HIV protease, the inhibition (commonly the percentage by which the read-out fell short of the control) at 10 µM was 61%. Besides, in assay [1], the IC50 (usually the concentration needed to halve the response being measured) was 1400 nM.
Consider `CC(C)(C)OC(=O)N[C@@H](Cc1ccccc1)[C@H](O)CNC[C@@H](O)[C@H](Cc1ccccc1)NC(=O)OC(C)(C)CCO` [Compound 169, [1S-(1R*,2S*)]-Iminobis[2-hydroxy-1-(phenylmethyl)-3,1-propanediyl]]biscarbamic acid, 1,1-dimethylethyl-3-hydroxy-1,1-dimethylpropyl ester], for which the inhibition at 10 µM at HIV protease came to 97%. Further, in assay [1], the IC50 was 200 nM.
The matching figures for `CC(C)[C@H](NC(=O)OCc1nc2ccccc2n1C)C(=O)N[C@@H](Cc1ccccc1)[C@H](O)CNC[C@@H](O)[C@H](Cc1ccccc1)NC(=O)OC(C)(C)C` [Compound 170, [S-[1R*,2S*(2S*,3R*)]-N-[3-[[3-[[(1 l-Dimethylethoxy)carbonyl]amino]-2-hydroxy-4-phenylbutyl]amino]-2-hydroxy-1-(phenylmethyl)-propyl]-N^2-[[(1-methyl-1H-benzimidazol-2-yl)-methoxy]carbonyl]-L-valinamide]: 100% and 100 nM.
Regarding `CC(C)(C)OC(=O)N[C@@H](Cc1ccccc1)[C@H](O)CNC[C@@H](O)[C@H](Cc1ccc(OCCN2CCOCC2)cc1)NC(=O)OC(C)(C)C` [Compound 175, [1S-[1R*,2S*(2S*,3R*)]]-[3-[[3-[[(1,1-Dimethylethoxy)carbonyl]amino]-2-hydroxy-4-(4-[2-(4-morpholinyl)ethoxyl-phenyl]butyl]amino]-2-hydroxy-1-(phenylmethyl)propyl]carbamic acid, 1,1-dimethylethyl ester], the inhibition at 10 µM at HIV protease was 99%. In addition, the IC50 in assay [1] is 30 nM.
In the same order, the values of `CC(C)(C)OC(=O)N[C@@H](Cc1ccccc1)[C@H](O)CNC[C@@H](O)[C@H](Cc1ccc(OCCc2ccccn2)cc1)NC(=O)OC(C)(C)C` [Compound 178, [1S-[1R*,2S*(2S*,3R*)]]-[3-[[3-[[(1,1-Dimethylethoxy)carbonyl]amino]-2-hydroxy-4-(4-[2-(2-pyridinyl)ethoxy]phenyl]butyl]amino]-2-hydroxy-1-(phenylmethyl)-propyl]carbamic acid, 1,1-dimethyl-ethyl ester] are 99% and 30 nM.
As to `CC(C)(C)OC(=O)N[C@@H](Cc1ccccc1)[C@H](O)CNC[C@@H](O)[C@H](Cc1ccc(OCc2ccccc2)cc1)NC(=O)OC(C)(C)C` [Compound 179, [1S-[1R*,2S*(2S*,3R*)]]-[3-[[3-[[(1,1-Dimethylethoxy)carbonyl]amino]-2-hydroxy-4-phenylbutyl]amino]-2-hydroxy-1-[[4-(phenylmethoxy)-phenyl]methyl]propyl]carbamic acid, 1,1-dimethylethyl ester], the inhibition at 10 µM at HIV protease is 99%. In addition, in assay [1], the IC50 was 170 nM.
Consider `CC(C)(C)OC(=O)N[C@@H](Cc1ccccc1)[C@H](O)CNC[C@@H](O)[C@H](Cc1ccccc1)NC(=O)SC(C)(C)C` [Compound 184, [1S-[1R*,2S*(2S*,3R*)]]-[3-[[3-[[[(1 1-Dimethylethyl)thio)carbonyl]amino]-2-hydroxy-4-phenylbutyl]amino]-2-hydroxy-1-(phenylmethyl)-propyl]carbamic acid, 1,1-dimethylethyl ester], for which, on HIV protease, the inhibition at 10 µM was found to be 99%. Besides, the IC50 in assay [1] was found to be 1300 nM.
As for `CC(C)(C)OC(=O)N[C@@H](Cc1ccccc1)C(O)CN(Cc1ccccc1)CC(O)[C@H](Cc1ccccc1)NC(=O)OC(C)(C)C` (stereo partly drawn) [Compound 194, [2S-(2R*,2R*)]-[[(Phenylmethyl)-imino]bis[2-hydroxy-4-phenyl-3,1-butanediyl]]biscarbamic acid, bis(1,1-dimethylethyl)ester], the inhibition at 10 µM at HIV protease was 0%. In addition, the IC50 in assay [1] was > 5000 nM.
Take `CN(CC(=O)[C@H](Cc1ccccc1)NC(=O)OC(C)(C)C)C[C@@H](O)[C@H](Cc1ccccc1)NC(=O)OC(C)(C)C` [Compound 197, [1S-[1R*(2S*,3R*)]]-[3-[[3-[[(1,1-Dimethylethoxy)carbonyl]-amino]-2-hydroxy-4-phenylbutyl]-methylamino]-2-oxo-1-(phenylmethyl)propyl]carbamic acid, 1,1-dimethylethyl ester]: the inhibition at 10 µM on HIV protease amounted to 10%. For the same compound, the IC50 in assay [1] is > 10000 nM.
The matching figures for `CN(CC(O)[C@H](Cc1ccccc1)NC(=O)OC(C)(C)C)C[C@@H](O)[C@H](Cc1ccccc1)NC(=O)OC(C)(C)C` (stereo partly drawn) [Compound 198, [1S-[1R*,2S*(3R*)]]-[3-[[3-[[(1,1-Dimethylethoxy)carbonyl]-amino]-2-hydroxy-4-phenylbutyl]-methylamino]-2-hydroxy-1-(phenylmethyl)propyl]-carbamic acid, 1,1-dimethylethyl ester]: 10% and > 14000 nM.
In the case of `CN(CC(=O)[C@H](Cc1ccccc1)NC(=O)OC(C)(C)C)C[C@H](O)[C@H](Cc1ccccc1)NC(=O)OC(C)(C)C` [Compound 199, [1S-[1R*(2R*,3R*)]]-3-[[3[[-(1,1-Dimethylethoxy)carbonyl]-amino]-2-hydroxy-4-phenylbutyl]-methylamino]-2-oxo-1-(phenylmethyl)-propyl]carbamic acid, 1,1-dimethylethyl ester], the inhibition at 10 µM at HIV protease is 3%. Further, in assay [1], the IC50 was > 17000 nM.
Regarding `CN(CC(O)C(Cc1ccccc1)NC(=O)OC(C)(C)C)CC(O)C(Cc1ccccc1)NC(=O)OC(C)(C)C` (stereo not drawn) [Compound 200, [1S-[1R*,2R*(1R*)]]-[3-[[3-[[(1,1-Dimethylethoxy)carbonyl]-amino]-2-hydroxy-4-phenylbutyl]-methylamino]-2-hydroxy-1-(phenylmethyl)propyl]-carbamic acid, 1,1-dimethylethyl ester], the inhibition at 10 µM at HIV protease stood at 5%. Also, the IC50 in assay [1] was > 15000 nM.
For `CC(C)(C)OC(=O)N[C@@H](Cc1ccccc1)[C@H](O)CNC[C@@H](O)[C@H](Cc1ccc(OCCCN2CCOCC2)cc1)NC(=O)OC(C)(C)C` [Compound 201, [1S-[1R*,2S*(2S*,3R*)]]-[3-[[3-[[(1,1-Dimethylethoxy)carbonyl]aminol-2-hydroxy-4-[4-[3-(4-morpholinyl)propoxy]phenyl]butyl]amino]-2-hydroxy-1-(phenylmethyl)propyl]carbamic acid, 1,1-dimethylethyl ester], on HIV protease, the inhibition at 10 µM amounted to 99%. The IC50 in assay [1] was 40 nM.
Take `CC(C)(C)OC(=O)N[C@@H](Cc1ccccc1)[C@H](O)CNC[C@@H](O)[C@H](Cc1ccc(OCCO)cc1)NC(=O)OC(C)(C)C` [Compound 209, [1S-[1R*,2S*(2S*,3R*)]]-[3[[-3-[[(1,1-Dimethylethoxy)carbonyl]amino]-2-hydroxy-4-[4-(2-hydroxyethoxy)phenyl]butyl]amino]-2-hydroxy-1-(phenylmethyl)propyl]-carbamic acid, 1,1-dimethylethyl ester]: the inhibition at 10 µM at HIV protease worked out at 99%. Moreover, the IC50 in assay [1] amounted to 30 nM.
Regarding `CC(C)(C)OC(=O)N[C@@H](Cc1ccccc1)[C@H](O)CNC[C@@H](O)[C@H](Cc1ccccc1)NC(=O)OC(C)(C)CCCOCc1ccccc1` [Compound 210, [1S-(1R*,2S*)]-[Iminobis[2-hydroxy-1-(phenylmethyl)-3,1-propanediyl]]biscarbamic acid, 1,1-dimethylethyl-4-(phenylmethoxy)-1,1-dimethylbutyl ester], the inhibition at 10 µM at HIV protease is 81%. Besides, in assay [1], the IC50 is > 5000 nM.
In the same order, the values of `CC(C)(C)OC(=O)N[C@@H](Cc1ccccc1)[C@H](O)CNC[C@@H](O)[C@H](Cc1ccccc1)NC(=O)C(=O)C(C)(C)C` [Compound 213, [1S-[1R*,2S*(2S*,3R*)]]-[3-[[3-[(3,3-Dimethyl-1,2-dioxobutyl)amino]-2-hydroxy-4-phenylbutyl]amino]-2-hydroxy-1-(phenylmethyl)propyl]carbamic acid, 1,1-dimethylethyl ester] are 98% and 170 nM.
As for `CC(C)(C)OC(=O)N[C@@H](Cc1ccccc1)[C@H](O)CNC[C@@H](O)[C@H](Cc1ccccc1)NC(=O)C(O)C(C)(C)C` (some centres unmarked) [Compound 214], at HIV protease, the inhibition at 10 µM stood at 97%. Moreover, in assay [1], the IC50 is 50 nM.
In the case of `Cc1ccc(N(C)CCOc2ccc(C[C@H](NC(=O)OC(C)(C)C)[C@H](O)CNC[C@@H](O)[C@H](Cc3ccccc3)NC(=O)OC(C)(C)C)cc2)cc1` [Compound 217, [1S-[1R*,2S*(2S*,3R*)]]-[3-[[3-[[(1,1-Dimethylethoxy)carbonyl]amino]-2-hydroxy-4-[4-[2-methyl(4-methylphen-yl)amino]-ethoxyl]phenyl]butyl]amino]-2-hydroxy-1-(phenylmethyl) propyl]carbamic acid, 1,1-dimethylethyl ester], the inhibition at 10 µM on HIV protease is 100%. Also, the IC50 in assay [1] is 480 nM.
In the same order, the values of `CC(C)[C@H](NC(=O)[C@@H](C)O)C(=O)N[C@@H](Cc1ccccc1)[C@H](O)CNC[C@@H](O)[C@H](Cc1ccccc1)NC(=O)OC(C)(C)C` [Compound 221, [1S-[[1R*,2S*(2S*,3R*)],N^2-(S*) ]]-N-[3-[[3-[[(1,1-Dimethylethoxy)carbonyl]amino]-2-hydroxy-4-phenylbutyl]amino]-2-hydroxy-1-(phenylmethyl)propyl]-N^2-(2-hydroxy-1-oxopropyl)-L-valinamide] are 96% and 1100 nM.
